According to US5312816A, “Method of combatting osteoporosis in mammalian subjects, utilizing organic boron compounds” (priority 1993, dated 1994):
Where two headings read alike, the source gives them in different places.

Columns and labels:
Cf1 male mice = experiment: Writhing reflex, 0.6% acetic acid; format: in vivo; conditions: Mus musculus, ip; Table IV
Pg-E2 synthesis [1] = experiment: 3H-Arachidonic acid conversion to Pg-E2, CF1 hepatic liver; format: biochemical, mouse
Aryl sulphatase [2] = experiment: Mouse macrophage aryl sulphatase activity; format: cell-based; conditions: Table VII; mouse macrophage cultured cells, 60 min incubation; read-out: Aryl Sulphatase IC50
Trypsin [3] = experiment: Human osteoporosis fibroblasts trypsin (BAEE) activity; format: cell-based
Description: (§1) 1. Trypsin- N-benzoyl-L-arginine ethyl ester pH 8.0, hydrolytic product 253 nm.

Acid phosphatase [4] = experiment: Mouse hepatic lysosomal acid phosphatase activity; format: biochemical; conditions: Table V; mouse hepatic, 60 min incubation
Description: (§2) 1. Cf1 male mouse hepatic 10% homogenates in 0.25M sucrose+0.001MEDTA,pH 7.2.
(§3) Lysosomal Enzymes - free and total [triton X-100].
(§4) 1. Acid phosphatase -beta glycerol-3-phosphate, pH 5.0, released IP 720 nm.
Acid phosphatase activity -

Elastase [5] = experiment: Mouse hepatic elastase activity; format: biochemical; conditions: Table VI, 60 min incubation
Description: as §2
(§5) 2. Elastase- N-succinyl-L-alanyl-L-alanine-p-nitroanilide, pH 8.0, p-nitro anilide 410 nm.
Elastase activity - in vitro

Prostaglandin synthetase = target: T1, Prostaglandin synthetase (Bos taurus, UniProt O62664); experiment: Prostaglandin synthetase (cyclooxygenase), purified beef seminal vesicle; format: biochemical; conditions: Table IX; commercial enzyme preparation; read-out: Beef Prostaglandin Cyclooxygenase IC50
T1 construct: Prostaglandin synthetase purified beef seminal vesicle; from tissue
T1 sequence (O62664 25-600): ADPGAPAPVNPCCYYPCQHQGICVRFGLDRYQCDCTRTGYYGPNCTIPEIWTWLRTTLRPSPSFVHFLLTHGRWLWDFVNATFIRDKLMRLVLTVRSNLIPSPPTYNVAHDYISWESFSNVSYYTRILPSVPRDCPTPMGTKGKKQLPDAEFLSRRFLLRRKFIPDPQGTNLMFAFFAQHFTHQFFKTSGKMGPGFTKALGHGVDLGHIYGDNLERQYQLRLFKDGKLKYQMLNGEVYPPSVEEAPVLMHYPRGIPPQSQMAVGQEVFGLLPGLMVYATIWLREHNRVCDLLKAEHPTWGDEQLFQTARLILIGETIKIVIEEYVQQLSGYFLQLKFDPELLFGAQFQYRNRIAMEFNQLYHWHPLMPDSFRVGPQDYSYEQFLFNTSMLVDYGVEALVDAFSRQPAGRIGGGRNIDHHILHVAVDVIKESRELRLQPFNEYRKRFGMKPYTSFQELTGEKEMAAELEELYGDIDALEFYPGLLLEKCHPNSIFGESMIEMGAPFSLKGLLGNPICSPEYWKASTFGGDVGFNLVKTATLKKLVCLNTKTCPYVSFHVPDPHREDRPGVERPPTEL
Description: (§6) Prostaglandin synthetase purified beef seminal vesicle ^3 H arachidonic acid (86.2 Ci/mmol), tlc separation.

Pg-E2 synthesis [6] = experiment: 3H-Arachidonic acid conversion to Pg-E2, macrophage; format: cell-based, mouse
Calcium = experiment: Serum and urine calcium levels in vivo; conditions: Cf1 male mice, 8 mg/kg/day I.P. 14 days, N=6
Aryl sulphatase [7] = experiment: Human osteoporosis fibroblasts aryl sulphatase activity; format: cell-based
Description: 3. Aryl sulphatase- p-nitrocatechol sulfate, pH
5. 8 p-nitro-catechol product 510 nm.

Acid phosphatase [8] = experiment: Human osteoporosis fibroblasts acid phosphatase activity; format: cell-based
Description: as §4

[9] = test system: Prostaglandin cyclooxygenase; experiment: Mouse macrophage prostaglandin cyclooxygenase activity; format: cell-based; conditions: Table VIII; mouse macrophages, 60 min incubation; read-out: Prostaglandin Cyclooxygenase IC50
Description: 3. Mouse macrophages J774A.1 BALB/c
as §6

Elastase [10] = experiment: Human osteoporosis fibroblasts elastase activity; format: cell-based
Description: as §5

Trypsin [11] = experiment: Mouse macrophage trypsin (BAEE) activity; format: cell-based; conditions: Table VIII; mouse macrophages, 60 min incubation; read-out: Trypsin BAEE IC50
[12] = test system: Prostaglandin cyclooxygenase; experiment: Human osteoporosis fibroblasts prostaglandin cyclooxygenase activity; format: cell-based; conditions: Table XI, 60 min incubation, read-out: Prostaglandin Cyclooxygense IC50
[13] = target: T2, Porcine Pancreatic Elastase (Sus scrofa, UniProt P00772); experiment: Porcine pancreatic elastase activity in vitro; format: biochemical; conditions: Table IX; commercial enzyme preparation
T2 construct: purchased; host or cells: porcine pancreas
T2 sequence (P00772 27-266): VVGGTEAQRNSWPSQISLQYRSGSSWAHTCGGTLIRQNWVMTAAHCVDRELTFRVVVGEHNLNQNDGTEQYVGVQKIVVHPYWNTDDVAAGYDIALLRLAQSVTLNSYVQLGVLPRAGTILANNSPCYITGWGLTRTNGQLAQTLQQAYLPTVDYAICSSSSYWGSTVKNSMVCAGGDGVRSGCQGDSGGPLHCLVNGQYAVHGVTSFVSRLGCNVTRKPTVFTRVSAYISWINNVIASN
Description: as §5

[14] = target: Clostridium histolyticum Collagenase Type I; experiment: Commercial collagenase type I; format: biochemical; conditions: Table IX; commercial enzyme preparation
Description: 3. Collagenase I, Clostridium histolyticum, bone, skin, tendon, blood vessel, dentine, GI. substrate: rat collagen, N-[propionate-2-3-^3 H] propionylated measured as dpm released.

Cathepsin D [15] = target: T3, Cathepsin D (Mus musculus, UniProt P18242); experiment: Mouse hepatic lysosomal cathepsin D activity; format: biochemical; conditions: Table V; mouse hepatic, 60 min incubation; read-out: Cathepsin D IC50
T3 construct: azocasein assay pH 5.0
T3 sequence (P18242 65-410): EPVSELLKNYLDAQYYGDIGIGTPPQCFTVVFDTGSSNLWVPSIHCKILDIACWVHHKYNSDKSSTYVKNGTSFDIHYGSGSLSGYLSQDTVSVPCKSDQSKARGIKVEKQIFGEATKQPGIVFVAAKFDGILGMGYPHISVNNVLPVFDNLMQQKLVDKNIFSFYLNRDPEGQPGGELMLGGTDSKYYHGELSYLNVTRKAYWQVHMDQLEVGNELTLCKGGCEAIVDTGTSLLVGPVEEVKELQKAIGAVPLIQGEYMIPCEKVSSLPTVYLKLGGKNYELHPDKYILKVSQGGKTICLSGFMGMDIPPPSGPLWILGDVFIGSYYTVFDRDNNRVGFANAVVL
Description: as §2, §3
2. Acid Cathepsin D -azocasein-pH 5.0, hydrolytic azo-peptide produce 366 nm.
Cathepsin azo casein activity -

Trypsin [16] = experiment: Mouse hepatic trypsin activity; format: biochemical; conditions: Table VI; mouse hepatic, 60 min incubation; read-out: Trypsin IC50
Description: as §2, §1

Cathepsin D [17] = target: T4, Cathepsin D (Homo sapiens, UniProt P07339); experiment: Human osteoporosis fibroblasts cathepsin D (azo-casein) activity; format: cell-based
T4 construct: azocasein assay pH 5.0
T4 sequence (P07339 65-412): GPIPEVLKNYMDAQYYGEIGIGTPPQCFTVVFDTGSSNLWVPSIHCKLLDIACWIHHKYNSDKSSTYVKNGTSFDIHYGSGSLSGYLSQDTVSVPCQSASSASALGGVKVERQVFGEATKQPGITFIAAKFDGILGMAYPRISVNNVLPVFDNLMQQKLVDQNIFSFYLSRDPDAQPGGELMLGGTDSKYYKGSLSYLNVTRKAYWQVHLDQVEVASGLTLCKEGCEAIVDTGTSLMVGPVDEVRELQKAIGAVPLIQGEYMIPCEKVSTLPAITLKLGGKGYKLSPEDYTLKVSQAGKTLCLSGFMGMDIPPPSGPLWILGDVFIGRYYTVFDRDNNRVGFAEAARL
Description: Osteoporosis Human Fibroblast-CRL-1140, Be SA1

Elastase [18] = experiment: Mouse macrophage elastase activity; format: cell-based; conditions: Table VIII; mouse macrophages, 60 min incubation; read-out: Elastase IC50
[19] = target: Clostridium histolyticum Collagenase Type II; experiment: Commercial collagenase type II; format: biochemical; conditions: Table IX; commercial enzyme preparation
Description: 4. Collagenase II, Clostridium histolyticum, cartilage collagen.

[20] = test system: lysosomal and proteolytic enzymes; experiment: Osteoporosis fibroblasts lysosomal and proteolytic enzymes (statement); format: cell-based, human
Acid phosphatase [21] = experiment: Mouse macrophage acid phosphatase activity; format: cell-based; conditions: Table VII; mouse macrophage cultured cells, 60 min incubation; read-out: Acid Phosphatase IC50

For CCCCCCCCCCCCCCCC[N+](C)(C)[BH2-]C(=O)O [Compound 7, N,N-Dimethylhexadecylamine-carboxyborane], the response vs control in vivo at 20 mg/kg (Cf1 male mice) was 54%, the “hepatic Pg-E2 synthesis reduced” value (Pg-E2 synthesis [1]) was 32% and the “3H-Arachidonic acid conversion to Pg-E2 reduced” value (Pg-E2 synthesis [1]; CF1 hepatic liver) was 43%. The IC50 (Aryl sulphatase [2]) was 9.71 µM, the IC50 (Trypsin [3]; Table VIIIA, osteoporosis fibroblasts in vitro, read-out: Trypsin (BAEE) IC-50) was 7.4 µM and the IC50 (Trypsin [3]; Table XI, human osteoporosis fibroblasts, 60 min incubation, read-out: Trypsin BAEE IC50) was 7.4 µM. For the same compound, the IC50 (Acid phosphatase [4]) was 8.86 µM, the IC50 (Elastase [5]) was 49.6 µM and the IC50 (Prostaglandin synthetase) was 2.86 µM. The “macrophage Pg-E2 synthesis reduced” value (Pg-E2 synthesis [6]) was 20%, the “3H-Arachidonic acid conversion to Pg-E2 reduced” value (Pg-E2 synthesis [6]; macrophage) was 29% and the Calcium urine (Calcium) was 80.7 % Control. It also gave an IC50 (Aryl sulphatase [7]; Table VIIIA, osteoporosis fibroblasts in vitro, read-out: Aryl Sulfatase IC-50) of 9.01 µM, an IC50 (Aryl sulphatase [7]; Table X, human osteoporosis fibroblasts, read-out: Aryl Sulphatase IC50) of 9.01 µM and an IC50 (Acid phosphatase [8]; Table VIIIA, osteoporosis fibroblasts in vitro, read-out: Acid Phosphatase IC-50) of 16.6 µM. The IC50 (Acid phosphatase [8]; Table X, human osteoporosis fibroblasts, read-out: Acid Phosphatase IC50) was 16.6 µM, the IC50 [9] was 2.55 µM and the IC50 (Elastase [10]; Table VIIIA, osteoporosis fibroblasts in vitro, read-out: Elastase IC-50) was 3.86 µM. The IC50 (Elastase [10]; Table XI, human osteoporosis fibroblasts, 60 min incubation, read-out: Elastase IC50) was 3.86 µM, the IC50 (Trypsin [11]) was 1.26 µM and the IC50 [12] was 6.77 µM. The IC50 [13] was 49.7 µM, the IC50 [14] was 615 µM and the IC50 (Cathepsin D [15]) was 2.82 µM. It also gave an IC50 (Trypsin [16]) of 1.16 µM, an IC50 (Cathepsin D [17]; Table VIIIA, osteoporosis fibroblasts in vitro, read-out: Cathepsin Azo-casein IC-50) of 2.06 µM and an IC50 (Cathepsin D [17]; Table X, human osteoporosis fibroblasts, DMEM +10% FCS + P/S, read-out: Cathepsin D IC50) of 2.06 µM. For the same compound, the IC50 (Elastase [18]) was 1.8 µM, the IC50 [19] was 109 µM and the “inhibition of lysosomal and proteolytic enzymes of osteoporosis fibroblasts” value [20] was “potent inhibitors”. It also gave an IC50 (Acid phosphatase [21]) of 0.94 µM.
